Experimental data taken from patent US10183062B2, “Treatment for cancer” (The University of Nottingham, priority 2013, dated 2019).

How the values were obtained:
[1] = target: NmeNTR, Neisseria meningitidis MC58 nitroreductase (NfnB homolog, Q9K022), wild type, SEQ ID NO: 1 (Neisseria meningitidis, UniProt Q9K022); assay: CB1954 nitroreductase activity, HPLC, purified His-tagged NmeNTR; format: biochemical; details: CB1954, cofactor NADH; 37° C., pH 7.0
Description: Genes encoding homologs of E. coli NfnB and Bacillus amyloliquefaciens YwrO from several bacteria were cloned into an E. coli expression vector for screening (see Methods below). These were the NfnB homolog from Neisseria meningitidis MC58 (‘NmeNTR’, accession number Q9K022), the NfnB homolog from Haemophilus somnus 129PT (‘HsoNTR’, accession number ZP_00122352.1), the NfnB homolog from Burkholderia fungorum LB400 (‘BfuNTR’, accession number ZP_00029570.1), the YwrO homolog from Vibrio cholerae (‘VchYwrO’, accession number Q9KNX3), the YwrO homolog from Rhodobacter sphaeroides (‘RspYwrO’, accession number ZP_00007082.1), and two YwrO homologs from Pseudomonas aeruginosa (‘PaeYwrO1’, accession number Q9HUJ0; and ‘PaeYwrO2’, accession number Q9I4B3).
For determination of CB1954 nitroreductase kinetic parameters, six-histidine affinity-tagged enzymes were purified from cell lysates purified using a Novagen His-Bind kit in accordance with the manufacturer's instructions.
CB1954 nitroreductase activity was determined essentially as described by Anlezark (6). Reaction mixtures containing 500 μM NADH or NADPH and a small quantity of enzyme (either crude lysate or purified enzyme) were assembled in pre-warmed (to 37° C.) 100 mM sodium phosphate buffer (pH 7.0), and started with the addition of 100 μM CB1954 and prompt mixing.
To determine initial reaction rates during preliminary screening of CB1954 nitroreductase candidates, aliquots of the reaction mixtures taken at various times were injected into a Partisphere SCX (100×4.7 mm) HPLC column and eluted isocratically at 2 ml/min with 130 mM NaH2PO4 (pH 5.0). Eluates were continuously monitored at 260 nm and 325 nm, and the absorbance spectra of eluting components recorded using a photodiode array detector. Peaks were identified with reference to standards and/or by their known absorbance spectra (7) and anticipated column retention times as appropriate. Rates were determined based on the decrease in the area under the CB1954 peak over time, normalised to the known starting concentration of 100 μM using the peak from the zero timepoint sample.
To determine initial reaction rates and CB1954 nitroreduction products in later experiments with purified proteins, peaks were identified as before, and rates were determined based on the increase in the area under the 4-hydroxylamine derivative peak over time, normalised using enzymatically-synthesised 4-hydroxylamine standards.
NmeNTR and HsoNTR were each affinity-tagged, over-expressed, purified, and the CB1954 nitroreductase activities of the purified proteins characterized using the HPLC assay. The reaction products and kinetic parameters of these enzymes with respect to CB1954 and NADH were determined (Table 1). […] Moreover, the kinetic parameters of HsoNTR and NmeNTR differ dramatically from those of E. coli NfnB and other published enzymes (Table 1). […] NmeNTR would therefore approach saturation with CB1954 in a therapeutic regime using the maximum clinically-recommended dose, so the prodrug would be efficiently activated and high levels of tumour-specific cytotoxicity achieved.

HCT116 tumours = assay: Mouse xenograft tumour growth delay with CB1954; format: in vivo, NMRI nu/nu mice (human colorectal HCT116 carcinoma)
Procedure: Human colorectal HCT116 carcinoma cells were grown in DMEM medium supplemented with 10% FBS, trypsinized and injected subcutaneously in 100 μl PBS/ . . . % matrigel at a concentration of 5.10^6 cells in the abdominal flank of adult NMRI nu/nu mice. As soon as tumours were palpable, tumour volumes were determined three times per week by measuring three orthogonal diameters using calipers. Volumes were calculated according to the formula V=A×B×C×/6. All experiments were conducted in accordance with local institutional guidelines of the University of Leuven, approved by the animal ethics committee and procedures were according to the guidelines defined by the UKCCCR (12). Treatment was initiated when tumours reached a volume of ˜250 mm^3. Five days post spore injection (5.10^7 cfu/100 μl), sham or prodrug treatment was started. CB1954 was prepared as described previously (13) and administered intraperitoneally (i.p.) at a concentration of 15 mg/kg for five consecutive days. At the end of the follow-up period, tumours and normal tissues were excised, ground and serially diluted to determine colonization levels (14). Tumour growth delay was determined for each individual tumour within the different groups as the time necessary to reach three times their initial volume at the start of the treatment. One-way ANOVA with a Tukey's posttest was used to determine statistical significance between the different growth curves.
Since strains E1 and N1 express stably-integrated NTR under the regulatory control of a strong promoter without inclusion of any antibiotic resistance gene, it was next determined whether administration of these clinically-applicable strains in combination with prodrug administration to tumour-bearing animals would result in anti-tumour efficacy. It was first evaluated whether inactivation of pyrE affected the tumour-colonizing capacity of systemically administered spores. Mice bearing subcutaneously transplanted HCT116 tumours were injected and tumour colonization tested seven days later. […] On average 10^9 cfu were found per gram of tumour tissue. Colonization was also confirmed by gram staining. In tumours, C. sporogenes vegetative cells are visible as purple, gram-positive rods (FIG. 3 C). As expected, C. sporogenes vegetative cells could not be detected in any of the normal tissues investigated. […] Spores were collected, quantified and intravenously administered at a concentration of 5.10×10^7 per animal when tumours reached a volume of ˜250 mm^3, followed five days later by sham or prodrug administration. […] In all cases, strain specific signals could be detected thereby confirming stability of the integrated construct.

[2] = test system: Vibrio fischeri FRase I variant F124W; details: Swe et al., 2012, cited from earlier work
[3] = test system: BliNTR, NTR from Bacillus licheniformis; details: Emptage et al., 2009, cited from earlier work
[4] = test system: E. coli NfnB variant N71S/F124K; details: Searle et al., 2004 and Race et al., 2007, cited from earlier work

NC(=O)c1cc(N2CC2)c([N+](=O)[O-])cc1[N+](=O)[O-] [CB1954, 5-(aziridin-1-yl)-2,4-dinitrobenzamide]
Kcat [1]: 4.04 (NADH) S^−1
tumours completely disappeared, E1/CB1954 group (HCT116 tumours; CB1954 15 mg/kg i.p. x 5 days + E1 (E. coli NfnB) spores): two out of 16
tumours completely disappeared, N1/CB1954 group (HCT116 tumours; CB1954 15 mg/kg i.p. x 5 days + N1 (NmeNTR) spores): four out of 16
tumour growth delay, pyrE mutant spores alone or with CB1954 (HCT116 tumours; CB1954 15 mg/kg i.p. x 5 days, pyrE mutant spores): small growth delay
tumour growth delay, E1 or N1 with CB1954 (HCT116 tumours; CB1954 15 mg/kg i.p. x 5 days, E1 (NfnB) or N1 (NmeNTR) C. sporogenes spores, most pronounced for N1 (p<0.001, one way ANOVA)): significant growth delay
Kcat ([2]; CB1954): 26.6 S^−1
Km ([2]; read-out: Km^CB1954): 259 µM
Kcat ([3]; CB1954): 6.4 S^−1
Km ([3]; read-out: Km^CB1954): 30 µM
Kcat ([4]; CB1954): 7.5 S^−1
Km ([4]; read-out: Km^CB1954): 170 µM
